In the supplement of paper PMC10307832:

Tests used:
Assay in all cases: relative viability (nuclei count vs DMSO), 5 days (fraction); higher = more cells survive
[1] = test system: LCLC-103H
Method in brief: (§1)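 After 5 days of treatment, lung cancer cells in 1536-well plates were fixed and stained in a single step (final 0.05% Triton X-100, 1% formaldehyde, 1 ug/ml Hoechst) and their nuclei counted on 4× images. Treatment had been applied by pin tool the day after seeding as one drug alone or as a fixed anchor-drug dose with five library-drug doses (not always all listed) in √10 steps. Relative viability is the nuclei count of treated wells divided by that of vehicle wells, and values are medians of duplicate plates.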

[2] = test system: NCI-H1703
Method in brief: as §1

[3] = test system: Calu-6
Method in brief: as §1

[4] = test system: UMC-11
Method in brief: as §1

[5] = test system: IA-LM
Method in brief: as §1

[6] = test system: A549
Method in brief: as §1

[7] = test system: EKVX
Method in brief: as §1

[8] = test system: NCI-H1755
Method in brief: as §1

[9] = test system: NCI-H1299
Method in brief: as §1

[10] = test system: EBC-1
Method in brief: as §1

[11] = test system: NCI-H1395
Method in brief: as §1

[12] = test system: HCC-44
Method in brief: as §1

[13] = test system: HCC-15
Method in brief: as §1

COc1cc2nccc(Oc3ccc(NC(=O)Nc4cc(C)on4)c(Cl)c3)c2cc1OC [Tivozanib] + C[C@]1(O)C[C@@H](c2nc(-c3ccc4ccc(-c5ccccc5)nc4c3)c3c(N)nccn32)C1 [Linsitinib] (partner 1 µM)
relative viability ([1]; first compound 0.005 µM): 1.01
relative viability ([1]; first compound 0.01581 µM): 0.959
relative viability ([1]; first compound 0.05 µM): 1.07
relative viability ([1]; first compound 0.1581 µM): 1.21
relative viability ([1]; first compound 0.5 µM): 1.12
relative viability ([2]; first compound 0.005 µM): 0.402
relative viability ([2]; first compound 0.01581 µM): 0.254
relative viability ([2]; first compound 0.05 µM): 0.167
relative viability ([2]; first compound 0.1581 µM): 0.158
relative viability ([2]; first compound 0.5 µM): 0.283
relative viability ([3]; first compound 0.005 µM): 0.89
relative viability ([3]; first compound 0.01581 µM): 0.941
relative viability ([3]; first compound 0.05 µM): 0.894
relative viability ([3]; first compound 0.1581 µM): 0.915
relative viability ([3]; first compound 0.5 µM): 0.83
relative viability ([4]; first compound 0.005 µM): 1.08
relative viability ([4]; first compound 0.01581 µM): 1.01
relative viability ([4]; first compound 0.05 µM): 1.06
relative viability ([4]; first compound 0.5 µM): 0.997
relative viability ([5]; first compound 0.005 µM): 0.526
relative viability ([5]; first compound 0.01581 µM): 0.508
relative viability ([5]; first compound 0.05 µM): 0.573
relative viability ([5]; first compound 0.1581 µM): 0.467
relative viability ([5]; first compound 0.5 µM): 0.511
relative viability ([6]; first compound 0.005 µM): 0.52
relative viability ([6]; first compound 0.01581 µM): 0.606
relative viability ([6]; first compound 0.05 µM): 0.625
relative viability ([6]; first compound 0.1581 µM): 0.635
relative viability ([6]; first compound 0.5 µM): 0.656
relative viability ([7]; first compound 0.005 µM): 0.95
relative viability ([7]; first compound 0.01581 µM): 0.931
relative viability ([7]; first compound 0.05 µM): 1.07
relative viability ([7]; first compound 0.1581 µM): 1.07
relative viability ([7]; first compound 0.5 µM): 1.09
relative viability ([8]; first compound 0.005 µM): 0.968
relative viability ([8]; first compound 0.01581 µM): 0.918
relative viability ([8]; first compound 0.05 µM): 1.05
relative viability ([8]; first compound 0.1581 µM): 1.02
relative viability ([8]; first compound 0.5 µM): 0.96
relative viability ([9]; first compound 0.005 µM): 0.956
relative viability ([9]; first compound 0.01581 µM): 0.981
relative viability ([9]; first compound 0.05 µM): 0.981
relative viability ([9]; first compound 0.1581 µM): 0.998
relative viability ([9]; first compound 0.5 µM): 0.841
relative viability ([10]; first compound 0.005 µM): 0.86
relative viability ([10]; first compound 0.01581 µM): 0.898
relative viability ([10]; first compound 0.05 µM): 0.909
relative viability ([10]; first compound 0.1581 µM): 0.762
relative viability ([10]; first compound 0.5 µM): 0.887
relative viability ([11]; first compound 0.005 µM): 0.99
relative viability ([11]; first compound 0.01581 µM): 1.1
relative viability ([11]; first compound 0.05 µM): 1.26
relative viability ([11]; first compound 0.1581 µM): 1.09
relative viability ([11]; first compound 0.5 µM): 0.827
relative viability ([12]; first compound 0.005 µM): 0.66
relative viability ([12]; first compound 0.01581 µM): 0.687
relative viability ([12]; first compound 0.05 µM): 0.641
relative viability ([12]; first compound 0.1581 µM): 0.679
relative viability ([12]; first compound 0.5 µM): 0.685
relative viability ([13]; first compound 0.005 µM): 0.9
relative viability ([13]; first compound 0.01581 µM): 0.878
relative viability ([13]; first compound 0.05 µM): 0.9
relative viability ([13]; first compound 0.1581 µM): 0.875
relative viability ([13]; first compound 0.5 µM): 0.897

COc1cc2nccc(Oc3ccc(NC(=O)Nc4cc(C)on4)c(Cl)c3)c2cc1OC [Tivozanib] + Cc1nc(NC(=O)N2CCC[C@H]2C(N)=O)sc1-c1ccnc(C(C)(C)C(F)(F)F)c1 [Alpelisib] (partner 2 µM)
relative viability ([1]; first compound 0.005 µM): 0.951
relative viability ([1]; first compound 0.01581 µM): 0.938
relative viability ([1]; first compound 0.05 µM): 1.04
relative viability ([1]; first compound 0.1581 µM): 0.997
relative viability ([1]; first compound 0.5 µM): 1.01
relative viability ([2]; first compound 0.005 µM): 0.262
relative viability ([2]; first compound 0.01581 µM): 0.179
relative viability ([2]; first compound 0.05 µM): 0.201
relative viability ([2]; first compound 0.1581 µM): 0.155
relative viability ([2]; first compound 0.5 µM): 0.203
relative viability ([3]; first compound 0.005 µM): 0.993
relative viability ([3]; first compound 0.01581 µM): 0.969
relative viability ([3]; first compound 0.05 µM): 0.943
relative viability ([3]; first compound 0.1581 µM): 0.863
relative viability ([3]; first compound 0.5 µM): 0.874
relative viability ([4]; first compound 0.005 µM): 1.11
relative viability ([4]; first compound 0.01581 µM): 0.846
relative viability ([4]; first compound 0.05 µM): 0.964
relative viability ([4]; first compound 0.5 µM): 0.959
relative viability ([5]; first compound 0.005 µM): 0.659
relative viability ([5]; first compound 0.01581 µM): 0.623
relative viability ([5]; first compound 0.05 µM): 0.718
relative viability ([5]; first compound 0.1581 µM): 0.597
relative viability ([5]; first compound 0.5 µM): 0.531
relative viability ([6]; first compound 0.005 µM): 0.715
relative viability ([6]; first compound 0.01581 µM): 0.754
relative viability ([6]; first compound 0.05 µM): 0.793
relative viability ([6]; first compound 0.1581 µM): 0.612
relative viability ([6]; first compound 0.5 µM): 0.774
relative viability ([7]; first compound 0.005 µM): 0.903
relative viability ([7]; first compound 0.01581 µM): 0.93
relative viability ([7]; first compound 0.05 µM): 0.958
relative viability ([7]; first compound 0.1581 µM): 0.888
relative viability ([7]; first compound 0.5 µM): 0.872
relative viability ([8]; first compound 0.005 µM): 0.925
relative viability ([8]; first compound 0.01581 µM): 0.888
relative viability ([8]; first compound 0.05 µM): 1.01
relative viability ([8]; first compound 0.1581 µM): 0.934
relative viability ([8]; first compound 0.5 µM): 0.84
relative viability ([9]; first compound 0.005 µM): 1.09
relative viability ([9]; first compound 0.01581 µM): 1.11
relative viability ([9]; first compound 0.05 µM): 1.08
relative viability ([9]; first compound 0.1581 µM): 1.13
relative viability ([9]; first compound 0.5 µM): 1.06
relative viability ([10]; first compound 0.005 µM): 0.79
relative viability ([10]; first compound 0.01581 µM): 0.924
relative viability ([10]; first compound 0.05 µM): 0.811
relative viability ([10]; first compound 0.1581 µM): 0.59
relative viability ([10]; first compound 0.5 µM): 0.74
relative viability ([11]; first compound 0.005 µM): 0.951
relative viability ([11]; first compound 0.01581 µM): 1.08
relative viability ([11]; first compound 0.05 µM): 1.01
relative viability ([11]; first compound 0.1581 µM): 1.05
relative viability ([11]; first compound 0.5 µM): 0.91
relative viability ([12]; first compound 0.005 µM): 0.815
relative viability ([12]; first compound 0.01581 µM): 0.758
relative viability ([12]; first compound 0.05 µM): 0.803
relative viability ([12]; first compound 0.1581 µM): 0.756
relative viability ([12]; first compound 0.5 µM): 0.831
relative viability ([13]; first compound 0.005 µM): 0.917
relative viability ([13]; first compound 0.01581 µM): 0.839
relative viability ([13]; first compound 0.05 µM): 0.943
relative viability ([13]; first compound 0.1581 µM): 0.826
relative viability ([13]; first compound 0.5 µM): 0.81
